The text below walks through data of patent US20070110758A1, “Method for inhibiting bacterial colonisation” (ADELAIDE RESERCH & INNOVATION PTY LTD, priority 2003, published 2007).

Structures are written as SMILES.

In this assay the test system is H. pylori. In words: Level of H. pylori colonisation in gastric body, transitional zone and antrum of inoculated mice, counted on Giemsa stained sections. As to conditions: Example 6; N-acetyl cysteine alone; FIGS. 3, 4. It counts as in vivo, Helicobacter pylori. Here is the method:
Female C57BL/6 mice, approximately six week old, were orally inoculated with Sydney strain 1 (SS1) of H. pylori (1.0×10^8 bacteria delivered in 0.1 ml of 0.9% (w/v) sodium chloride) according to Lee et al., (1997) Gastroenterology 112:1386-1397 (the entire disclosure of which is incorporated herein by reference) and treated twice daily by oro-gastric gavage for 21 days, starting 4 weeks after inoculation (Scheme 1 below). Animals were housed in the Animal House at the Women's and Children's Hospital. All animals were fed mouse chow and water ad libitum. [drawing 1] […]
The level of colonisation in the gastric body, transitional zone and antrum of mice inoculated with H. pylori was counted in 9-12 consecutive fields on Giemsa stained sections.
To assess the effect of the mucolytic agent N-acetyl cysteine […] on colonisation, the level of colonisation in the gastric body, transitional zone and antrum in mice inoculated with H. pylori was counted in 9-12 consecutive fields on Giemsa stained sections.
The level of colonisation in the gastric body, transitional zone and antrum in mice inoculated with H. pylori was counted in 9-12 consecutive fields on Giemsa stained sections.
Colonisation (Giemsa staining): The level of colonisation in the gastric body, transitional zone and antrum was counted in 9-12 consecutive fields on stained sections. […]

Turning to `CC(=O)N[C@@H](CS)C(=O)O` [NAC, N-acetyl cysteine], the level of colonisation entry is “no effect”.
